This assay concerns the target T1, butyrylcholinesterase (BChE) (Equus caballus, UniProt P81908).
T1 construct: purchased Merck Life Science S.r.l; (Milan, Italy); host or cells: equine serum
The assay can be described thus: In vitro BChE inhibition test (spectrophotometric, Ellman). Particulars: 1.0 µg/mL in reaction mixture, read-out: % Enzyme Inhibition (n = 3). Type of assay: biochemical, equine. On the technique in general: Ellman's reagent forms a yellow product with free thiols.

Structures can show the parent of a compound that is named as a salt.

T1 sequence (P81908 whole entry): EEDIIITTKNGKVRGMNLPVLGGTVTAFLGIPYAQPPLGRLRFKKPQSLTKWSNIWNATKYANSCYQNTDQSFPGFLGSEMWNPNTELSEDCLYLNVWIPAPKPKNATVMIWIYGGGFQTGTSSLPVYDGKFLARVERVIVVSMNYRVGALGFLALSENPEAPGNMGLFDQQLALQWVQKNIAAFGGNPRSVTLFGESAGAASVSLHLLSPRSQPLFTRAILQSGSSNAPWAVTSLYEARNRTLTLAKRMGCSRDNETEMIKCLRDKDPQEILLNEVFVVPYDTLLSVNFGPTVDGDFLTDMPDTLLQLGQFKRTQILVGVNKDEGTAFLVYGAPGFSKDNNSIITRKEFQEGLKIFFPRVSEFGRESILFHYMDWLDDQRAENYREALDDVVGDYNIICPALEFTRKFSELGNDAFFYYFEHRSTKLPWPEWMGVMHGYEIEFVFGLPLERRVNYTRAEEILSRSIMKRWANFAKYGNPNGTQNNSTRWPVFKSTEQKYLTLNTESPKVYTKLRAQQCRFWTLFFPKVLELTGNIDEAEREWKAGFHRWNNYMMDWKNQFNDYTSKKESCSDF
Procedure: The assays were optimized for essential oil matrices, particularly by adjusting solvent conditions (DMSO content), substrate/enzyme ratios, and assay timing to ensure measurements within the linear kinetic range. The percentage inhibition of AChE, BChE, α-glucosidase, lipase and tyrosinase was measured according to the equation below: % Inhibition=∆AControl−∆A(Sample)/∆AControl×100 where: ∆A (Control) = A Control − A Control Blank∆A(Sample) = A Sample − A Sample Blank
The buffers used in the experiment were: buffer A (50 mM Tris-HCl, pH 8), buffer B (50 mM Tris-HCl, pH 8, supplemented with 0.1% bovine albumin and 0.1% TWEEN20) and buffer C (50 mM Tris-HCl, pH 8, containing 0.1 M NaCl and 0.02 M MgCl2•6H2O). The solutions for both enzymes (0.22 U/mL) were prepared using buffer B. Acetylthiocholine iodide (ATCI) at 1.5 mM was dissolved in Millipore water, while butyrylthiocholine iodide (BTCI) was dissolved in buffer A. Ellman’s reagent solution (3 mM) was prepared in buffer C.
The final concentration of DMSO in the reaction mixture was 0.3%. The mixture was incubated at 30 °C for 6 min, after which absorbance was measured at 405 nm.

In general, inhibition refers to how much of the control response was suppressed. On to `COc1ccc2c3c1O[C@H]1C[C@@H](O)C=C[C@@]31CCN(C)C2` [Galanthamine, galanthamine hydrobromide], for which the inhibition at 1 µg/mL turned out to be 24.7%.

Values taken from article PMC13119441, “Linking Chemical Profile to Enzyme Inhibition: A Comprehensive Bio-Guided Study of Lippia origanoides Kunth Essential Oil” (Plants, 2026).
